“Also recorded” adds a separate entry of the source.
What was measured:
[1] = Cell viability after MTX or PTX treatment (FIG. 17); assay type: cell-based; settings: human; for viability: post MTX or PTX treatment; for viability at 5 days: HEK293T cells, after 5-days of MTX or PTX treatment, read-out: viable cells
Description: Call quantification, imaging, and statistical analysis: Cells were quantified using a Cellometer Auto T4 counting chamber after mixing in a 1:1 ratio with Trypan blue (MilliporeSigma) to exclude dead cells. The average of 2 separate counts was taken to calculate the cell numbers. All live cell imaging was conducted using an EVOS FL Auto microscope (Thermo Fisher Scientific). All statistical analysis was performed using a paired Student's t test with Bonferroni correction or 1-sample Student's t test. Values of P<0.05 were considered significant.

HF57 cells [2] = assay: Global DNA methylation, 5mC ELISA (FIG. 18); assay type: cell-based, human; settings: 7-days; vs untreated cells
Description: (§1) Equal amount of DNA (100 ng) was analyzed with 5mC enzyme-linked immunosorbent assay (ELISA) (EpiGentek). […] Error bars represent the standard error for at least three independent experiments and three technical replicates.
(§2) Global DNA methylation measurement Global 5-methylcytosine (5-mC) levels were quantified using the MethylFlash Methylated DNA Quantification Kits (Epigentek, Farmingdale, NY, USA). The DNA concentration was determined using the Qubit Assay (Thermo Fisher Scientific) according to the manufacturer's protocol. Briefly, 100 ng of DNA was used for incubation with both capture and detection antibodies using MethylFlash Methylated DNA Quantification Kit (Colorimetric) from Epigentek. Subsequently, measurements of the absorbance of the sample at 450 nm in a microplate spectrophotometer (BioTek Instruments, Winooski, VT, USA) were performed with the percentage of the whole genome 5-mC calculation according to manufacturer's instructions. Genomic methylation levels in study samples were expressed as percentage of 5-mC.

293T cells [3] = assay: Embryoid body formation from SSEA4 positive sorted cells (FIG. 27); assay type: cell-based, human
Description: HEK293T and HF57 were treated with MTX and PTX for 7 or more days in low methionine condition. SSEA4 positive cells were sorted using cell sorter and maintained on mTeSR™ Plus medium supplemented with HT.
293T cells were treated with MTX and/or PTX for 10 or more days. SSEA4 positive cells were sorted using single cell sorter and maintained on mTeSR1 medium. […] FIGS. 28-29 show the three-germ layer immunostaining of putative pluripotent stem cells derived from 293T cells treated with MTX and PTX.

[4] = system: human embryonic kidney cells (293T); assay: Cell proliferation under prolonged MTX/PTX application, with or without HT (FIG. 16); assay type: cell-based; settings: for cell proliferation: prolonged, controlled application, 5% dialyzed-FBS DMEM, 500 nM MTX for 7-days
Description: The cells were grown in 5% dialyzed-FBS DMEM medium. 293T cells were treated with 500 nM MTX, and HF57 cells and HDF cells were treated with 1 μM MTX for 7-days. Because inhibition of DHFR and TS by folate antagonists (MTX, PTX) results in a deficiency in the cellular pools of thymidylate and purines and thus a decrease in nucleic acid synthesis, sodium hypoxanthine (10 mM) and thymidine (1.6 mM) were added to the medium to overcome the effects of MTX and PTX. […] The cells were harvested for DNA/RNA isolation and analyzed for gene expression and DNA methylation.
MTX and PTX are antifolates that inhibit enzymes (particularly thymidylate synthase and dihydrofolate reductase) involved in folate metabolism and purine and pyrimidine synthesis (100-103). Since these compounds are competitive inhibitors of […], these compounds were exogenously applied to the WT (HEK 293T and HF57) cells. As shown in FIGS. 16-17, application of MTX and PTX to the normal growing WT cells produced the phenotypes similar to the FPGS^ko. Several concentrations of MTX ranging from 75 nM to 500 nM were tested. The impact of MTX depended on the cell lines, exposure time, and the supplemental media. A concentration as low as 75 nM achieved similar results when a lower concentration of FBS was used, and the best results for 293T cells were obtained using MTX at a concentration ranging between 200 nM and 500 nM. Further, the pharmacological impacts of folate inhibitors on global DNA methylation were examined. 293T (control) cells were treated with 500 nM MTX and 1 μM PTX for at least 7 days before harvesting the cells and isolating the genomic DNA (gDNA). Equal amount of gDNA (100 ng) was analyzed with 5mC enzyme-linked immunosorbent assay (ELISA) (EpiGentek).

293T cells [5] = assay: Global DNA methylation, 5mC ELISA (FIG. 18); assay type: cell-based, human; settings: 500 nM MTX, 1 μM PTX; 7-days; vs untreated cells
Description: as §1, §2
MTX and PTX are antifolates that inhibit enzymes (particularly thymidylate synthase and dihydrofolate reductase) involved in folate metabolism and purine and pyrimidine synthesis (100-103). […] Equal amount of gDNA (100 ng) was analyzed with 5mC enzyme-linked immunosorbent assay (ELISA) (EpiGentek).

HF57 cells [6] = assay: Transcriptomics (RNAseq) of MTX and PTX treated cells (FIG. 20); assay type: cell-based, human; settings: for pluripotency markers significantly enriched: compared to controls
Text: RNAseq data validated that application of MTX and PTX affected C1 metabolism in the treated cells. […] The global transcriptional change across the groups compared was visualized by a volcano plot (FIGS. 20A-20B). Each data point in the scatter plot represents a gene. The log 2 fold change of each gene is represented on the x-axis and the log 10 of its adjusted p-value is on the y-axis. Genes with an adjusted p-value less than 0.05 and a log 2 fold change greater than 1 are indicated by red dots. […] Genes with an adjusted p-value less than 0.05 and a log 2 fold change less than −1 are indicated by green dots. […] Heat map visualization of the selected 67 differentially expressed genes. Original values are ln(x)-transformed. Rows are centered; unit variance scaling is applied to rows. Red indicates higher expression, whereas low expression indicated in green (FIG. 20C). For visual clarity, expression of selected genes is presented in groups based on their relative values (FIG. 20D).
The quiescent nature of the MTX and PTX cells and the association of demethylation with the generation of induced pluripotent stem cells led to examining markers for stem cells formation. The 293T and HF57 cells were grown on 5% dialyzed FBS DMEM medium. DMEM without methionine, DMEM with 15 mg/L (half dose) and DMEM with 30 mg/L (regular DMEM) were used to grow the cells. Once the cells attained 70% confluency, HF57 were treated with 1-μM MTX or PTX and HEK293T were treated with 500 nM MTX or 1 μM PTX. The cells were treated with MTX or PTX for 7-days, and subsequently the medium was replaced with N2B27 medium (Thermo Fisher Scientific, USA). The cells were grown in N2B27 medium for 15 days which supported undifferentiated growth of human embryonic stem cells. Subsequently, these cells were maintained in MTeSR medium supplemented with sodium hypoxanthine and thymidine (HT) for 15 or more days. These conditions supported prolonged self-renewal of putative pluripotent cells, and they were able to form colonies and later embryoid bodies in vitro. Subsequently, the cells were assessed for markers linked to stem cells. Transcriptomics and qRT-PCR were performed to examine whether ES cell marker genes were expressed in these cells. Both MTX and PTX treated cells expressed the marker genes (FIGS. 20-21 and 25-26). […] To authenticate these findings, two key pluripotency markers (SSEA-4 and TRA 1-60) were examined using immunofluorescence.

[7] = treated 7 or more days, low methionine, mTeSR Plus + HT, after 15-days
[8] = treated 10 or more days, mTeSR1 medium, after 10-days

## CN(Cc1cnc2nc(N)nc(N)c2n1)c1ccc(C(=O)N[C@@H](CCC(=O)O)C(=O)O)cc1 [MTX, methotrexate]
[1]; HDF fibroblast cell line
  viability: 60 to 75%
[1]
  viability at 5 days: 20 to 25%
[1]; HF57 fibroblast cell line
  viability: 60 to 75%
HF57 cells [2]
  global DNA methylation (5mC content): significant reduction in global DNA methylation
293T cells [3]; [7]
  embryoid body formation: formed embryoid bodies
293T cells [3]; [8]
  embryoid body formation: started forming embryoid bodies
[4]
  cell proliferation: reduced cell proliferation
[4]; when a lower concentration of FBS was used
  concentration as low as which achieved similar results: 75 nM
293T cells [5]
  global DNA methylation (5mC content): significantly lower levels of DNA methylation; also recorded: significant reduction in global DNA methylation
HF57 cells [6]
  LIN28A enrichment compared to controls: 6 fold
  NANOG enrichment compared to controls: 6 fold
  SOX2 enrichment compared to controls: 5 fold
  one carbon-metabolism and DNA methylation related genes significantly down-regulated: about 41 genes
  one carbon-metabolism and DNA methylation related genes upregulated: 9 genes
  pluripotency markers significantly enriched: about 50

## Nc1nc2[nH]cc(CCc3ccc(C(=O)N[C@@H](CCC(=O)O)C(=O)O)cc3)c2c(=O)[nH]1 [PTX, pemetrexed]
[1]; HDF fibroblast cell line
  viability: 60 to 75%
[1]
  viability at 5 days: 20 to 25%
[1]; HF57 fibroblast cell line
  viability: 60 to 75%
HF57 cells [2]
  global DNA methylation (5mC content): significant reduction in global DNA methylation
293T cells [3]; [7]
  embryoid body formation: formed embryoid bodies
293T cells [3]; [8]
  embryoid body formation: started forming embryoid bodies
[4]
  cell proliferation: reduced cell proliferation
293T cells [5]
  global DNA methylation (5mC content): significantly lower levels of DNA methylation; also recorded: significant reduction in global DNA methylation
HF57 cells [6]
  LIN28A enrichment compared to controls: 6 fold
  NANOG enrichment compared to controls: 6 fold
  SOX2 enrichment compared to controls: 5 fold
  one carbon-metabolism and DNA methylation related genes significantly down-regulated: about 41 genes
  one carbon-metabolism and DNA methylation related genes upregulated: 9 genes
  pluripotency markers significantly enriched: about 50

Reference: patent publication US20250171744A1, “METHODS OF REPROGRAMMING SOMATIC CELLS AND MATERIALS RELATED THERETO” (CITY OF HOPE, priority 2019, published 2025)
